In ChEMBL document CHEMBL1157773, “Cytotoxic polyphenols from the marine-derived fungus Penicillium expansum” (J Nat Prod, 2010):

Key:
[1] = test system: A549; experiment: Cytotoxicity against human A549 cells after 72 hrs by SRB assay; format: functional, cell-based
[2] = test system: HL-60; experiment: Cytotoxicity against human HL60 cells after 72 hrs by MTT assay; format: functional, cell-based
[3] = Homo sapiens, HL-60, 72 h, read-out: IC50

CC(=O)OC[C@@H](C)CCC[C@](C)(O)c1ccc(C(=O)O)cc1O [12-ACETOXYSYDONIC ACID]
IC50 [1]: Not Active | IC50 ([2]; hl-60): Not Active

COC(C)(CCCC(C)C)c1ccc(Cc2c(C)cc(Oc3cc(C)cc(O)c3)cc2O)cc1O (single isomer, unassigned) [EXPANSOL A]
IC50 [2, 3]: 15.7 µM

C=C(C)CCC[C@](C)(O)c1ccc(C(=O)O)cc1O [11-DEHYDROSYDONIC ACID]
IC50 [1]: Not Active | IC50 ([2]; hl-60): Not Active

Cc1cc(O)cc(Oc2cc(C)c(Cc3ccc([C@](C)(O)CCCC(C)C)c(O)c3)c(O)c2)c1 [EXPANSOL B]
IC50 [2, 3]: 5.4 µM
